How the values were obtained:
Npc1^−/− mice [1] = test: CatWalk automated gait analysis in Npc1−/− mice; assay type: in vivo, mouse; conditions: Npc1−/− mice, gait analysis at 10 weeks of age
Experimental: (§1) BALBc/NPC ^h and Sandhoff mice were bred as heterozygotes to generate affected mice (Npc1^−/−, Hexb^−/−) and controls (Npc^+/+, Hexb^+/+). The mice were housed under non-sterile conditions, with food and water available ad libitum. All experiments were conducted using protocols approved by the UK Home Office Animal Scientific Procedures Act, 1986.
(§2) ADLL and enantiomers (ADLL: Molekula #73891210, ALL: Sigma Aldrich #441511, ADL: Sigma #A0876) were administered as dry admix in powdered mouse diet (PicoLab Rodent Diet 20/5053, LabDiet) at a dose of 0.1 g/kg/day for in vivo studies. Treatment groups for in vivo study consisted of at least 5 mice per group. In vitro studies were conducted with each compound dissolved in PBS to generate a 50 mM stock solution and diluted to a 1 mM working concentration in media (DMEM High Glucose-Gibco #10566016).
(§3) Miglustat (Monsanto/Oxford GlycoSciences) was administered as a dry solid mixed with powdered chow (600 mg/kg/day) (see above) alone or in combination with ADLL.
(§4) The weight and activity of each mouse was recorded weekly until reaching the humane endpoint (defined as a loss of 1 g body weight within 24 h). Gait analysis was performed using CatWalk 10.5 system (Noldus) according to the manufacturer's instructions and five runs were recorded per animal at each time point. The camera was set to 40 cm below the walkway, the walkway was approximately 4 cm wide, and detection settings set to camera gain 14.05 and green intensity 0.12. Motor function was measured using an accelerating NG Rota Rod for mice (Ugo Basile) starting from 1 rpm to 10 rpm, accelerating every 30 seconds by one rpm. Bar crossing experiments on Sandhoff animals were conducted to measure motor strength and coordination. The apparatus used was modified from published studies. Briefly, a metal bar (1.2 mm width and 26 cm in length) was suspended horizontally between two wooden supports 30 cm high over a cushioned surface and animals were allowed to grasp the center of the bar with forepaws only, the tail was released, and the clock was started. Latency to cross or fall from the bar was scored, with 120 sec, maximum, to termination of each trial. A score was given to each animal between +120 and −120. If crossing time was greater than 0, then score=120−CT; if falling time was greater than 0, the score=FT−120.

[2] = cited from earlier work
Npc1^−/− mice [3] = test: Survival / life span of Npc1−/− mice; assay type: in vivo, mouse; conditions: Npc1−/− mice; ADLL 0.1 g/kg/day, miglustat 600 mg/kg/day in chow; untreated Npc1−/− 87 days
Experimental: as §1, §2, §3
as §4, with “Briefly, a metal bar (1.2 mm width and 26 cm in length) was suspended horizontally between two wooden supports 30 cm high over a cushioned surface and animals were allowed to grasp the center of the bar with forepaws only, the tail was released, and the clock was started.” left out, “A score was given to each animal between +120 and −120. If crossing time was greater than 0, then score=120−CT; if falling time was greater than 0, the score=FT−120.” left out

SMILES: CCCCN1C[C@H](O)[C@@H](O)[C@H](O)[C@H]1CO [miglustat, 1,5-(butylimino)-1,5-dideoxy-D-glucitol]
- Stand mean (Npc1^−/− mice [1]): significantly improved
- hind Duty Cycle percentages (Npc1^−/− mice [1]): showed no benefit
- adverse effects in the treatment subjects ([2]; NPC first-line therapy, Champion et al. 2010): causes unwanted weight loss and gastrointestinal disturbances
- weight loss ([2]; known effect, through appetite suppression): known to cause weight loss through appetite suppression
- median survival (Npc1^−/− mice [3]): 117 days

From patent publication US12697316B2, “Combination therapy with acetyl-leucine and miglustat” (INTRABIO LTD., priority 2019, dated 2026)
